US20220031684A1, “PROPHYLACTIC EFFICACY OF SEROTONIN 4 RECEPTOR AGONISTS AGAINST STRESS” (THE TRUSTEES OF COLUMBIA UNIVERSITY IN THE CITY OF NEW YORK, priority 2019, published 2022)
Where a name gives a salt, the structure may show the parent alone.

How the values were obtained:
BALB/cJRj mice [1] = experiment: Splash Test after single dose; format: in vivo; settings: single systemic dose 1.5 mg/kg, 45 minutes before test
Method: Having shown that RS 67333 was provided with prophylactic properties, we subsequently sought to gain knowledge of this molecule in the long term, i.e. to find out whether the anxiolytic response brought about by RS 67333 is sustainable over time. In order to achieve this, the BALB/cJRj mice were systemically injected with a single dose of RS 67333 (1.5 mg/kg) or diazepam (1.5 mg/kg), 45 minutes before performing the Splash Test. The following day, the mice underwent the EPM without having received another dose of RS, and then at the open field 24 hours later, and, finally, to NSF 24 hours after the open field (FIG. 15A).

BALB/cJRj mice [2] = experiment: EPM with optogenetic inhibition of mPFC terminals in the DRN (CaMKII-ArchT); format: in vivo; settings: for time, percent time spent in the open arms (EPM), light OFF / inhibition of the drug-induced increase in open-arm time (EPM) during 3-min green light illumination: intra-mPFC RS67333 0.5 pg/side or diazepam 1.5 pg/side; for inhibition of the drug-induced increase in open-arm time (EPM) during 3-min green light illumination: light ON
Method: The EPM is a widely used behavioral assay for rodents and it has been validated to assess the anti-anxiety effects of pharmacological agents (A-S11). This test was performed as described by (A-S1). The maze is a plus-cross-shaped apparatus, with two open arms and two arms closed by walls linked by a central platform 50 cm above the floor. Mice were individually put in the center of the maze facing an open arm and were allowed to explore the maze during 5 min for the behavioral consequences of an acute systemic administration or mPFC infusion and during 6 min for the optogenetic experiments. The time spent in and the numbers of entries into the open arms were used as an anxiety index. All parameters were measured using a videotracker (EPM3C, Bioseb, Vitrolles, France).
To target opsin expression selectively to cortical glutamatergic terminals in the DRN, AAV5-CaMKIIα-ChR2-enhanced yellow fluorescent protein (eYFP), AAV5-CaMKII-ArchT-green fluorescent protein (GFP) or AAV5-CaMKII-eYFP, obtained from Karl Deisseroth and Ed Boyden (UNC Vector Core, NC, USA) were bilaterally injected into the mPFC (in mm from bregma, A=+2.10, L=±0.50, V=−2.60). Mice injected with AAV5-CamKII-eYFP were used as control.
BALB/cJRj mice were surgically implanted with fiber optics targeted to the DRN (in mm from bregma, A=−4.50, L=+1.20, V=−4.0, angle 15°). A […] core, 0.37 NA fiber optic (ThorLabs, ˜10-12 and 15-16 mW for ChR2 and Arch-T, respectively, at the tip of optic) was used for optical stimulation via a patch cable connected to either a 473 or 532 nm laser diode (OEM laser systems, USA) as previously described (A-S15). For behavioral experiments, AAV5-CaMKIIα-ChR2-eYFP mice and their controls received a 10 Hz stimulation, 20 ms pulses, over a 3-minute period whereas a green light was delivered continuously to AAV5-CaMKII-ArchT-GFP throughout the 3 min testing period. Similar doses of RS67333 (locally in the mPFC at […] or at 1.5 mg/kg, i.p.) and diazepam (locally in the mPFC at […] or at 1.5 mg/kg, i.p.) were infused in the mPFC or administered i.p. The stimulation or the inhibition of mPFC projections in the DRN occurred simultaneously to the behavioral paradigms.

[3] = CaMKII-ArchT-mPFC injected mice, systemic RS67333 1.5 mg/kg or diazepam 1.5 mg/kg
[4] = CamKII-ArchT mice, intra-mPFC infusion

## CCCCN1CCC(CCC(=O)c2cc(Cl)c(N)cc2OC)CC1.Cl [RS-67,333, 1-(4-amino-5-chloro-2-methoxyphenyl)-3-[1(n-butyl)-4-piperidinyl]-1-propanone HCl]
BALB/cJRj mice [1]
  grooming time (Splash Test): increased the grooming time
  number of grooming episodes (Splash Test): without affecting the number of episodes
BALB/cJRj mice [2]; [3]
  decrease in time spent in the open arms (EPM), light ON vs light OFF: 24%
BALB/cJRj mice [2]; CamKII-ArchT mice
  time, percent time spent in the open arms (EPM), light OFF: increased significantly time
  inhibition of the drug-induced increase in open-arm time (EPM) during 3-min green light illumination: 70±8%

## CN1C(=O)CN=C(c2ccccc2)c2cc(Cl)ccc21 [diazepam, Diazepam hydrochloride]
BALB/cJRj mice [1]
  grooming time (Splash Test): not identify any effect in the Splash Test
BALB/cJRj mice [2]; [3]
  decrease in time spent in the open arms (EPM), light ON vs light OFF: 17%
  time, percent time in open arms and ratio open arms/total distance (EPM), light OFF vs vehicle: increased time, percent time spent in open arms
BALB/cJRj mice [2]; CamKII-ArchT mice
  time, percent time spent in the open arms (EPM), light OFF: increased significantly time
  inhibition of the drug-induced increase in open-arm time (EPM) during 3-min green light illumination: 85±5%
BALB/cJRj mice [2]; [4]
  drug-induced increase of ratio open arms/total distance (EPM), light ON: blocked
  ratio of ambulatory distance in open arms divided by total distance (EPM), light OFF vs controls: increased the ratio
